{"source": "patent EP0908457B1", "about": "“3-(1,2-benzisothiazol- and isoxazol-5-Y1)-2,4(1H,3H)-pyrimidinedione or thione and 3-(1,2-benzisothiazol- and isoxazol-5-y1)-4(3H)-pyrimidinone or thione herbicidal agents” (BASF AKTIENGESELLSCHAFT, priority 1997, dated 1999)", "type_in_all_cases": "in vivo", "key": {"[1]": {"system": "Echinochloa oryzoides (Ard.) Fritsch.", "experiment": "Preemergence weed control under flooded paddy conditions, ECHORC (Watergrass (Calif.)); as to herbicidal effect rating, ECHORC: meaning of each grade not given here", "details": "preemergence, flooded paddy, rated three to four weeks after treatment"}, "[2]": {"system": "Cyperus iria", "experiment": "Preemergence weed control under flooded paddy conditions, CYPIR (Rice Flatsedge); as to herbicidal effect rating, CYPIR: meaning of each grade not given here", "details": "preemergence, flooded paddy, rated three to four weeks after treatment"}, "[3]": {"system": "Cyperus serotinus, Rottb.", "experiment": "Preemergence weed control under flooded paddy conditions, CYPSE (Flatsedge); as to herbicidal effect rating, CYPSE: meaning of each grade not given here", "details": "preemergence, rated three to four weeks after treatment"}, "[4]": {"system": "Monochoria vaginalis, Presl.", "experiment": "Preemergence weed control under flooded paddy conditions, MOOVA (Monochoria); as to herbicidal effect rating, MOOVA: meaning of each grade not given here", "details": "preemergence, flooded paddy, rated three to four weeks after treatment"}, "[5]": {"system": "Sagittaria pygmaea, L.", "experiment": "Preemergence weed control under flooded paddy conditions, SAGPY (Arrowhead (Pygmaea)); as to herbicidal effect rating, SAGPY: meaning of each grade not given here", "details": "preemergence, flooded paddy, rated three to four weeks after treatment"}}}
{"smiles": "COC(=O)COc1cc(C)c(I)cc1-c1nsc2ccc(-n3c(=O)cc(C(F)(F)F)n(C)c3=O)cc12", "note": "[Example 469, Acetic acid, {{6-{5-[3,6-dihydro-3-methyl-2,6-dioxo-4-(trifluoromethyl)-1(2H)-pyrimidinyl]-1,2-benzisothiazol-3-yl}-4-iodo-m-tolyl}oxy}-, methyl ester]", "values": [{"measurement": "ECHORC herbicidal rating", "setting": "[1]; 0.0320 kg/ha", "result": 7.0}, {"measurement": "ECHORC herbicidal rating", "setting": "[1]; 0.0620 kg/ha", "result": 9.0}, {"measurement": "ECHORC herbicidal rating", "setting": "[1]; 0.1250 kg/ha", "result": 9.0}, {"measurement": "ECHORC herbicidal rating", "setting": "[1]; 0.2500 kg/ha", "result": 9.0}, {"measurement": "CYPIR herbicidal rating", "setting": "[2]; 0.0320 kg/ha", "result": 0.0}, {"measurement": "CYPIR herbicidal rating", "setting": "[2]; 0.0620 kg/ha", "result": 1.5}, {"measurement": "CYPIR herbicidal rating", "setting": "[2]; 0.1250 kg/ha", "result": 6.5}, {"measurement": "CYPIR herbicidal rating", "setting": "[2]; 0.2500 kg/ha", "result": 7.0}, {"measurement": "CYPSE herbicidal rating", "setting": "[3]; 0.0320 kg/ha", "result": 0.0}, {"measurement": "CYPSE herbicidal rating", "setting": "[3]; 0.0620 kg/ha", "result": 4.5}, {"measurement": "CYPSE herbicidal rating", "setting": "[3]; 0.1250 kg/ha", "result": 9.0}, {"measurement": "CYPSE herbicidal rating", "setting": "[3]; 0.2500 kg/ha", "result": 6.0}, {"measurement": "MOOVA herbicidal rating", "setting": "[4]; 0.0320 kg/ha", "result": 2.0}, {"measurement": "MOOVA herbicidal rating", "setting": "[4]; 0.0620 kg/ha", "result": 4.5}, {"measurement": "MOOVA herbicidal rating", "setting": "[4]; 0.1250 kg/ha", "result": 5.0}, {"measurement": "MOOVA herbicidal rating", "setting": "[4]; 0.2500 kg/ha", "result": 8.0}, {"measurement": "SAGPY herbicidal rating", "setting": "[5]; 0.0320 kg/ha", "result": 0.0}, {"measurement": "SAGPY herbicidal rating", "setting": "[5]; 0.0620 kg/ha", "result": 1.5}, {"measurement": "SAGPY herbicidal rating", "setting": "[5]; 0.1250 kg/ha", "result": 2.5}, {"measurement": "SAGPY herbicidal rating", "setting": "[5]; 0.2500 kg/ha", "result": 3.0}]}
{"smiles": "Cn1c(C(F)(F)F)cc(=O)n(-c2ccc3snc(COC(=O)C(C)(C)C)c3c2)c1=O", "note": "[Example 498, 2,4(1H,3H)-Pyrimidinedione, 3-[3-(hydroxymethyl)-1,2-benzisothiazol-5-yl]-1-methyl-6-(trifluoromethyl)-, pivalate (ester)]", "values": [{"measurement": "ECHORC herbicidal rating", "setting": "[1]; 0.0320 kg/ha", "result": 0.0}, {"measurement": "ECHORC herbicidal rating", "setting": "[1]; 0.0620 kg/ha", "result": 3.0}, {"measurement": "ECHORC herbicidal rating", "setting": "[1]; 0.1250 kg/ha", "result": 5.0}, {"measurement": "ECHORC herbicidal rating", "setting": "[1]; 0.2500 kg/ha", "result": 6.0}, {"measurement": "CYPIR herbicidal rating", "setting": "[2]; 0.0320 kg/ha", "result": 2.0}, {"measurement": "CYPIR herbicidal rating", "setting": "[2]; 0.0620 kg/ha", "result": 5.0}, {"measurement": "CYPIR herbicidal rating", "setting": "[2]; 0.1250 kg/ha", "result": 9.0}, {"measurement": "CYPIR herbicidal rating", "setting": "[2]; 0.2500 kg/ha", "result": 9.0}, {"measurement": "CYPSE herbicidal rating", "setting": "[3]; 0.1250 kg/ha", "result": 0.0}, {"measurement": "MOOVA herbicidal rating", "setting": "[4]; 0.0320 kg/ha", "result": 4.0}, {"measurement": "MOOVA herbicidal rating", "setting": "[4]; 0.0620 kg/ha", "result": 5.0}, {"measurement": "MOOVA herbicidal rating", "setting": "[4]; 0.1250 kg/ha", "result": 7.0}, {"measurement": "MOOVA herbicidal rating", "setting": "[4]; 0.2500 kg/ha", "result": 8.0}, {"measurement": "SAGPY herbicidal rating", "setting": "[5]; 0.0320 kg/ha", "result": 0.0}, {"measurement": "SAGPY herbicidal rating", "setting": "[5]; 0.0620 kg/ha", "result": 0.0}, {"measurement": "SAGPY herbicidal rating", "setting": "[5]; 0.1250 kg/ha", "result": 3.0}, {"measurement": "SAGPY herbicidal rating", "setting": "[5]; 0.2500 kg/ha", "result": 6.0}]}
{"smiles": "CC(OCc1nsc2ccc(-n3c(=O)cc(C(F)(F)F)n(C)c3=O)cc12)C(F)(F)F", "note": "(centres unmarked) [Example 208]", "values": [{"measurement": "ECHORC herbicidal effect rating", "setting": "[1]; Rate 0.0313 kg/ha", "result": 0.0}, {"measurement": "ECHORC herbicidal effect rating", "setting": "[1]; Rate 0.0625 kg/ha", "result": 0.0}, {"measurement": "ECHORC herbicidal effect rating", "setting": "[1]; Rate 0.1250 kg/ha", "result": 0.0}, {"measurement": "ECHORC herbicidal effect rating", "setting": "[1]; Rate 0.2500 kg/ha", "result": 0.0}, {"measurement": "CYPIR herbicidal effect rating", "setting": "[2]; Rate 0.0313 kg/ha", "result": 9.0}, {"measurement": "CYPIR herbicidal effect rating", "setting": "[2]; Rate 0.0625 kg/ha", "result": 9.0}, {"measurement": "CYPIR herbicidal effect rating", "setting": "[2]; Rate 0.1250 kg/ha", "result": 9.0}, {"measurement": "CYPIR herbicidal effect rating", "setting": "[2]; Rate 0.2500 kg/ha", "result": 9.0}, {"measurement": "CYPSE herbicidal effect rating", "setting": "[3]; Rate 0.0313 kg/ha", "result": 0.0}, {"measurement": "CYPSE herbicidal effect rating", "setting": "[3]; Rate 0.0625 kg/ha", "result": 0.0}, {"measurement": "CYPSE herbicidal effect rating", "setting": "[3]; Rate 0.1250 kg/ha", "result": 0.0}, {"measurement": "CYPSE herbicidal effect rating", "setting": "[3]; Rate 0.2500 kg/ha", "result": 0.0}, {"measurement": "MOOVA herbicidal effect rating", "setting": "[4]; Rate 0.0313 kg/ha", "result": 0.0}, {"measurement": "MOOVA herbicidal effect rating", "setting": "[4]; Rate 0.0625 kg/ha", "result": 2.0}, {"measurement": "MOOVA herbicidal effect rating", "setting": "[4]; Rate 0.1250 kg/ha", "result": 2.0}, {"measurement": "MOOVA herbicidal effect rating", "setting": "[4]; Rate 0.2500 kg/ha", "result": 4.0}, {"measurement": "SAGPY herbicidal effect rating", "setting": "[5]; Rate 0.0313 kg/ha", "result": 0.0}, {"measurement": "SAGPY herbicidal effect rating", "setting": "[5]; Rate 0.0625 kg/ha", "result": 0.0}, {"measurement": "SAGPY herbicidal effect rating", "setting": "[5]; Rate 0.1250 kg/ha", "result": 0.0}, {"measurement": "SAGPY herbicidal effect rating", "setting": "[5]; Rate 0.2500 kg/ha", "result": 0.0}]}
{"smiles": "CCS(=O)(=O)NC(=O)C(C)Oc1ccc(C)cc1-c1nsc2ccc(-n3c(=O)cc(C(F)(F)F)n(C)c3=O)cc12", "note": "(centres unmarked) [Example 571, Propionamide, 2-{{2-{5-[3,6-dihydro-3-methyl-2,6-dioxo-4-(trifluoromethyl)-1(2H)-pyrimidinyl]-1,2-benzisothiazol-3-yl}-p-tolyl}oxy}-N-(ethylsulfonyl)]", "values": [{"measurement": "herbicidal effect rating, ECHORC", "setting": "[1]; Rate 0.0320 kg/ha", "result": 0.0}, {"measurement": "herbicidal effect rating, ECHORC", "setting": "[1]; Rate 0.0620 kg/ha", "result": 2.0}, {"measurement": "herbicidal effect rating, ECHORC", "setting": "[1]; Rate 0.1250 kg/ha", "result": 3.0}, {"measurement": "herbicidal effect rating, ECHORC", "setting": "[1]; Rate 0.2500 kg/ha", "result": 6.0}, {"measurement": "herbicidal effect rating, CYPIR", "setting": "[2]; Rate 0.0320 kg/ha", "result": 0.0}, {"measurement": "herbicidal effect rating, CYPIR", "setting": "[2]; Rate 0.0620 kg/ha", "result": 3.0}, {"measurement": "herbicidal effect rating, CYPIR", "setting": "[2]; Rate 0.1250 kg/ha", "result": 3.0}, {"measurement": "herbicidal effect rating, CYPIR", "setting": "[2]; Rate 0.2500 kg/ha", "result": 9.0}, {"measurement": "herbicidal effect rating, CYPSE", "setting": "[3]; Rate 0.0320 kg/ha", "result": 0.0}, {"measurement": "herbicidal effect rating, CYPSE", "setting": "[3]; Rate 0.0620 kg/ha", "result": 0.0}, {"measurement": "herbicidal effect rating, CYPSE", "setting": "[3]; Rate 0.1250 kg/ha", "result": 0.0}, {"measurement": "herbicidal effect rating, CYPSE", "setting": "[3]; Rate 0.2500 kg/ha", "result": 0.0}, {"measurement": "herbicidal effect rating, MOOVA", "setting": "[4]; Rate 0.0320 kg/ha", "result": 0.0}, {"measurement": "herbicidal effect rating, MOOVA", "setting": "[4]; Rate 0.0620 kg/ha", "result": 6.0}, {"measurement": "herbicidal effect rating, MOOVA", "setting": "[4]; Rate 0.1250 kg/ha", "result": 7.0}, {"measurement": "herbicidal effect rating, MOOVA", "setting": "[4]; Rate 0.2500 kg/ha", "result": 9.0}, {"measurement": "herbicidal effect rating, SAGPY", "setting": "[5]; Rate 0.0320 kg/ha", "result": 0.0}, {"measurement": "herbicidal effect rating, SAGPY", "setting": "[5]; Rate 0.0620 kg/ha", "result": 0.0}, {"measurement": "herbicidal effect rating, SAGPY", "setting": "[5]; Rate 0.1250 kg/ha", "result": 0.0}, {"measurement": "herbicidal effect rating, SAGPY", "setting": "[5]; Rate 0.2500 kg/ha", "result": 0.0}]}
